Here are results for 14 compounds from patent US7514443B2, “Substituted pyrazolo[1,5-a]pyrimidines as inhibitors of metabotropic glutamate receptors” (Hoffmann-La Roche Inc., priority 2003, dated 2009).

As a reminder, the melting point is the temperature of the solid-liquid transition. In the case of `FC(F)(F)c1cc(-c2ccc(Cl)c(Cl)c2)nc2c(-c3ccncc3)cnn12` [Example 4.10, 5-(3,4-Dichloro-phenyl)-3-pyridin-4-yl-7-trifluoromethyl-pyrazolo[1,5-a]pyrimidine], the melting point came to 260 °C. As for `Cc1ccc(-c2cc(C(F)(F)F)n3ncc(-c4ccncc4)c3n2)cc1C(F)(F)F` [Example 4.27, 5-(4-Methyl-3-trifluoromethyl-phenyl)-3-pyridin-4-yl-7-trifluoromethyl-pyrazolo[1,5-a]pyrimidine], the melting point was 218 °C. `Cc1cc(-c2cnn3c(C(F)(F)F)cc(-c4ccc(Cl)c(Cl)c4)nc23)ccn1` [Example 4.32, 5-(3,4-Dichloro-phenyl)-3-(2-methyl-pyridin-4-yl)-7-trifluoromethyl-pyrazolo[1,5-a]pyrimidine] showed a melting point of 275 °C. The result for `Cc1cc(-c2cnn3c(C(F)(F)F)cc(-c4ccc(Cl)c(C)c4)nc23)ccn1` [Example 4.30, 5-(4-Chloro-3-methyl-phenyl)-3-(2-methyl-pyridin-4-yl)-7-trifluoromethyl-pyrazolo[1,5-a]pyrimidine] reads 240 °C. With `Cc1cc(-c2cnn3c(C(F)(F)F)cc(-c4ccc(C(F)(F)F)c(C)c4)nc23)cc(C)n1` [Example 4.38, 5-(3-Methyl-4-trifluoromethyl-phenyl)-3-(2,6-dimethyl-pyridin-4-yl)-7-trifluoromethyl-pyrazolo[1,5-a]pyrimidine], the melting point was determined as 253 °C. Compound `COc1ccc(-c2cc(C(F)F)n3ncc(-c4ccncc4)c3n2)cc1` [Example 9.5, 7-Difluoromethyl-5-(4-methoxy-phenyl)-3-pyridin-4-yl-pyrazolo[1,5-a]pyrimidine] displayed a melting point of 206 °C. `FC(F)(F)c1cccc(-c2cc(C(F)(F)F)n3cnc(-c4cccnc4)c3n2)c1` [Example 8.5, 8-Pyridin-3-yl-4-trifluoromethyl-2-(3-trifluoromethyl-phenyl)-imidazo[1,5-a]pyrimidine]: the melting point was found to be 194 °C. On to `Cc1cc(-c2ncn3c(C(F)(F)F)cc(-c4ccc(F)c(Cl)c4)nc23)ccn1` [Example 8.22, 2-(3-Chloro-4-fluoro-phenyl)-8-(2-methyl-pyridin-4-yl)-4-trifluoromethyl-imidazo[1,5-a]pyrimidine], for which the melting point turned out to be 255 °C. The result for `FC(F)(F)c1ccc(-c2cc(C(F)(F)F)n3cnc(-c4cccnc4)c3n2)cc1` [Example 8.6, 8-Pyridin-3-yl-4-trifluoromethyl-2-(4-trifluoromethyl-phenyl)-imidazo[1,5-a]pyrimidine] reads 231 °C; that for `COc1ccc(-c2cc(C(F)(F)F)n3ncc(-c4ccncc4)c3n2)cc1` [Example 4.58, 5-(4-Methoxy-phenyl)-3-pyridin-4-yl-7-trifluoromethyl-pyrazolo[1,5-a]pyrimidine], 244 °C.

For the compound `N#CCc1nn2c(C(F)(F)F)cc(-c3ccc(F)c(Cl)c3)nc2c1C#N` [Example 3.1, 5-(3-Chloro-4-fluoro-phenyl)-2-cyanomethyl-7-trifluoromethyl-pyrazolo[1,5-a]pyrimidine-3-carbonitrile], the melting point worked out at 185 °C. For the compound `Cc1cc(-c2cc(C(F)(F)F)n3ncc(-c4ccccn4)c3n2)ccc1Cl` [Example 4.5, 5-(4-Chloro-3-methyl-phenyl)-3-pyridin-2-yl-7-trifluoromethyl-pyrazolo[1,5-a]pyrimidine], the melting point was 183 °C. For the compound `Cc1ccc(-c2cc(C(F)(F)F)n3cnc(-c4ccncc4)c3n2)cc1C(F)(F)F` [Example 8.16, 2-(4-Methyl-3-trifluoromethyl-phenyl)-8-pyridin-4-yl-4-trifluoromethyl-imidazo[1,5-a]pyrimidine], the melting point is 222 °C. The result for `Fc1cc(-c2cc(C(F)(F)F)n3ncc(-c4cccnc4)c3n2)ccc1C(F)(F)F` [Example 4.18, 5-(3-Fluoro-4-trifluoromethyl-phenyl)-3-pyridin-3-yl-7-trifluoromethyl-pyrazolo[1,5-a]pyrimidine] reads 162 °C.
